Values joined by “and” are separate entries in the source; they are usually repeats but may differ in a detail not shown here. Identical values can stand only once. Like-named read-outs stand apart in the source and are kept apart here.
Target: T1, CRTH2 receptor (hCRTH2) (Homo sapiens, UniProt Q9Y5Y4)
T1 construct: expressed in transfected cells; host or cells: HEK cells (HEK-hCRTH2 cell line), membranes
T1 sequence (Q9Y5Y4 1-395): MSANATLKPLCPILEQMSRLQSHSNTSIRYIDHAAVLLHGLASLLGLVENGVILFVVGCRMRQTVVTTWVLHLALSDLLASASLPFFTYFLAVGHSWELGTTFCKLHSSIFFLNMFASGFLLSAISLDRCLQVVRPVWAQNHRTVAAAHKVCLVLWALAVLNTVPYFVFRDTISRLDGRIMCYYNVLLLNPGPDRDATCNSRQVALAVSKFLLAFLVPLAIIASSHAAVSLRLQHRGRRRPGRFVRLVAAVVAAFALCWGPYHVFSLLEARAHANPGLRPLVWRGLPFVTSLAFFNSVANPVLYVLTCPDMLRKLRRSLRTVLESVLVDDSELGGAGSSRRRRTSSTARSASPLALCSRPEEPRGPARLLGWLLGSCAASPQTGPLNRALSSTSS
Experiment: Radioligand binding assay ([3H]PGD2 competition, membranes of HEK-hCRTH2 cell line)
Conditions: 3.0 nM [3H]PGD2, HEK-hCRTH2 membranes, 60 min, room temperature
How it was run: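 Membranes (8-20 μg protein) from HEK cells expressing human CRTH2 were incubated with [3H]PGD2 and competitor in 1% DMSO for 60 min at room temperature. Non-specific binding was defined with excess PGD2. Bound radioactivity was separated by filtration and counted by melt-on scintillation.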

Row | SMILES | Ki (read-out: Ki) | Ki (Ki) [µM]
1 | CC(O)(c1cc(-c2ccc3c(=O)n(-c4ccc(F)cc4)c(CCCCC(=O)O)nc3c2)no1)c1ccccc1F (stereo not drawn) [Example 129] | ≤ 0.01 µM | –
2 | O=C(O)CCCCc1nc2cc(-c3cc(CSc4ccc(F)cc4)on3)ccc2c(=O)n1-c1ccc(F)cc1 [Example 39F] | ≤ 0.01 µM | –
3 | O=C(O)CCCCc1nc2cc(-c3cc(Cn4ccccc4=O)on3)ccc2c(=O)n1-c1ccc(F)cc1 [Example 107] | ≤ 0.01 µM | –
4 | C[C@@]1([C@H](O)c2ccc(F)cc2)CC(c2ccc3c(=O)n(-c4ccc(F)cc4)c(CCCCC(=O)O)nc3c2)=NO1 [Example 289] | ≤ 0.01 µM | –
5 | O=C(O)CCCCc1nc2cc(-c3cc(COCc4ccc(-c5ccccc5)cc4)on3)ccc2c(=O)n1-c1ccc(F)cc1 [Example 280] | 0.01 to 0.05 µM | –
6 | O=C(O)CCCCc1nc2cc(-c3cc(-c4ccccc4)no3)ccc2c(=O)n1-c1ccc(F)cc1 [Example 32] | 0.01 to 0.05 µM and 0.0221 µM | –
7 | O=C(O)CCCCc1nc2cc(C3=NOC(c4ccccc4)C3)ccc2c(=O)n1-c1ccc(Cl)cc1 (stereo not drawn) [Example 15K] | ≤ 0.01 µM | –
8 | O=C(O)CCCCc1nc2cc(C3=NOC(c4nc5ccccc5o4)C3)ccc2c(=O)n1-c1ccc(F)cc1 (single isomer, unassigned) [Example 28D, 5-(7-(5-(benzo[d]oxazol-2-yl)-4,5-dihydroisoxazol-3-yl)-3-(4-fluorophenyl)-4-oxo-3,4-dihydroquinazolin-2-yl)pentanoic acid] | 0.01 to 0.05 µM | –
9 | O=C(O)CCCCc1nc2cc(-c3cc(CNS(=O)(=O)c4ccc(F)cc4)on3)ccc2c(=O)n1-c1ccc(F)cc1 [Example 24H] | ≤ 0.01 µM | –
10 | Cc1cccc2nc(C3(C)CC(c4ccc5c(=O)n(-c6ccc(F)cc6)c(CCCCC(=O)O)nc5c4)=NO3)[nH]c12 (stereo not drawn) [Example 195] | ≤ 0.01 µM | –
11 | CC1(c2nc3ccc(F)cc3o2)CC(c2ccc3c(=O)n(-c4ccc(F)cc4)c(CCCCC(=O)O)nc3c2)=NO1 (stereo not drawn) [Example 169] | ≤ 0.01 µM | –
12 | CC1(c2nc3ccccc3[nH]2)CC(c2ccc3c(=O)n(-c4ccc(F)cc4)c(CCCCC(=O)O)nc3c2)=NO1 (stereo not drawn) [Example 160] | ≤ 0.01 µM | –
13 | Cc1cc(-c2ccc3c(=O)n(-c4ccc(F)cc4)c(CCCCC(=O)O)nc3c2)no1 [Example 5i] | 0.01 to 0.05 µM | –
14 | O=C(O)CCCCc1nc2cc(C3=NOC4(CCc5c(F)cccc54)C3)ccc2c(=O)n1-c1ccc(F)cc1 (stereo not drawn) [Example 144] | 0.01 to 0.05 µM | –
15 | CO[C@H](c1ccccc1)c1cc(-c2ccc3c(=O)n(-c4ccc(F)cc4)c(C(C)CCCC(=O)O)nc3c2)no1 (stereo partly drawn) [Example 148] | ≤ 0.01 µM | –
16 | C[C@]1([C@@H](O)c2ccccc2)CC(c2ccc3c(=O)n(-c4ccc(F)cc4)c(CCCCC(=O)O)nc3c2)=NO1 [Example 26D] | 0.01 to 0.05 µM | –
17 | CC1(c2cccc(C#N)c2)CC(c2ccc3c(=O)n(-c4ccc(F)cc4)c(CCCCC(=O)O)nc3c2)=NO1 (stereo not drawn) [Example 118] | – | 0.01 to 0.05
18 | O=C(O)CCCCc1nc2cc(-c3cc([C@@H](O)c4ccc(F)cc4)on3)ccc2c(=O)n1-c1ccccc1 [Example 25D] | ≤ 0.01 µM | –
19 | O=C(O)CCCCc1nc2cc(-c3cn(-c4cccnc4)nn3)ccc2c(=O)n1-c1ccc(F)cc1 [Example 20, 5-{3-(4-fluorophenyl)-4-oxo-7-[1-(pyridin-3-yl)-1H-1,2,3-triazol-4-yl]-3,4-dihydroquinazolin-2-yl}pentanoic acid] | ≤ 0.01 µM | –
20 | O=C(O)CCCCc1nc2cc(-c3cn(Cc4ccccc4)nn3)ccc2c(=O)n1-c1ccc(F)cc1 [Example 17, 5-[7-(1-benzyl-1H-1,2,3-triazol-4-yl)-3-(4-fluorophenyl)-4-oxo-3,4-dihydroquinazolin-2-yl]pentanoic acid] | ≤ 0.01 µM | –
21 | O=C(O)CCCCc1nc2cc(-n3cc(Cc4ccccc4)nn3)ccc2c(=O)n1-c1ccc(F)cc1 [Example 21E] | ≤ 0.01 µM | –
22 | Cc1cc(-c2ccc3c(=O)n(-c4ccc(C(F)(F)F)cc4)c(CCCCC(=O)O)nc3c2)no1 [Example 13, 5-{7-(5-Methylisoxazol-3-yl)-4-oxo-3-[4-(trifluoromethyl)phenyl]-3,4-dihydroquinazolin-2-yl}pentanoic acid] | ≤ 0.01 µM | –
23 | C[C@@]1(c2nc3ccccn3c2Cl)CC(c2ccc3c(=O)n(-c4ccc(F)cc4)c(CCCCC(=O)O)nc3c2)=NO1 [Example 167] | ≤ 0.01 µM | –
24 | O=C(O)CCCCc1nc2cc(C3=NOC(c4ccncc4)C3)ccc2c(=O)n1-c1ccc(F)cc1 (stereo not drawn) [Example 15H] | 0.01 to 0.05 µM | –
25 | CC(CCCc1nc2cc(C3=NOC(C)([C@@H](O)c4ccccc4)C3)ccc2c(=O)n1-c1ccc(F)cc1)C(=O)O (stereo partly drawn) [Example 110] | 0.01 to 0.05 µM | –
26 | CC(C)(O)c1cn(-c2ccc3c(=O)n(-c4ccc(F)cc4)c(CCCCC(=O)O)nc3c2)nn1 [Example 21C] | 0.01 to 0.05 µM | –
27 | C=C(c1ccccc1)c1cc(-c2ccc3c(=O)n(-c4ccc(F)cc4)c(CCCCC(=O)O)nc3c2)no1 [Example 128] | ≤ 0.01 µM | –

Row | SMILES | Ki (read-out: Ki) | Ki (Ki) [µM]
28 | O=C(O)CCCCc1nc2cc(-c3cc(CNC(=O)c4ccccc4)on3)ccc2c(=O)n1-c1ccc(F)cc1 [Example 24F] | ≤ 0.01 µM | –
29 | C[C@@H](O)c1cc(-c2ccc3c(=O)n(-c4ccc(F)cc4)c(CCCCC(=O)O)nc3c2)no1 [Example 265] | 0.01 to 0.05 µM | –
30 | O=C(O)CCCCc1nc2cc(-c3noc(C4CCCc5ccccc54)n3)ccc2c(=O)n1-c1ccc(F)cc1 (stereo not drawn) [Example 244] | ≤ 0.01 µM | –
31 | CC1(c2nc3cc(F)cc(F)c3[nH]2)CC(c2ccc3c(=O)n(-c4ccc(F)cc4)c(CCCCC(=O)O)nc3c2)=NO1 (stereo not drawn) [Example 198] | ≤ 0.01 µM | –
32 | C[C@@]1([C@@H](O)c2ccc(F)cc2)CC(c2ccc3c(=O)n(-c4ccc(F)cc4)c(CCCCC(=O)O)nc3c2)=NO1 [Example 291] | 0.01 to 0.05 µM | –
33 | O=C(O)CCCCc1nc2cc(-c3noc(Cc4ccc(F)cc4)n3)ccc2c(=O)n1-c1ccc(F)cc1 [Example 36, 5-(7-(5-(4-fluorobenzyl)-1,2,4-oxadiazol-3-yl)-3-(4-fluorophenyl)-4-oxo-3,4-dihydroquinazolin-2-yl)pentanoic acid] | ≤ 0.01 µM | –
34 | CC(C)(C)OC(=O)N1CCC2(CC1)CC(c1ccc3c(=O)n(-c4ccc(Cl)cc4)c(CCCCC(=O)O)nc3c1)=NO2 [Example 15T] | ≤ 0.01 µM | –
35 | C[C@]1(Cc2ccc(F)cc2)CC(c2ccc3c(=O)n(-c4ccc(F)cc4)c(CCCCC(=O)O)nc3c2)=NO1 [Example 292] | 0.01 to 0.05 µM | –
36 | COc1ccccc1S(=O)(=O)NCc1cc(-c2ccc3c(=O)n(-c4ccc(F)cc4)c(CCCCC(=O)O)nc3c2)no1 [Example 24, 5-(3-(4-fluorophenyl)-7-(5-((2-methoxyphenylsulfonamido)methyl)isoxazol-3-yl)-4-oxo-3,4-dihydroquinazolin-2-yl)pentanoic acid] | ≤ 0.01 µM | –
37 | O=C(O)CCCCc1nc2cc(-c3noc(-c4nc5ccc(F)cc5o4)n3)ccc2c(=O)n1-c1ccc(F)cc1 [Example 248] | 0.01 to 0.05 µM | –
38 | O=C(O)CCCCc1nc2cc(-c3cc(C(O)(c4ccccc4)C(F)(F)F)on3)ccc2c(=O)n1-c1ccc(F)cc1 (stereo not drawn) [Example 131] | 0.01 to 0.05 µM | –
39 | CC(C)(C)OC(=O)C1(C)CC(c2ccc3c(=O)n(-c4ccc(F)cc4)c(CCCCC(=O)O)nc3c2)=NO1 (stereo not drawn) [Example 192] | ≤ 0.01 µM | –
40 | O=C(O)CCCCc1nc2cc(-c3cc(COCc4ccnc5ccccc45)on3)ccc2c(=O)n1-c1ccc(F)cc1 [Example 284] | 0.01 to 0.05 µM | –
41 | Cc1cc(-c2ccc3c(=O)n(-c4ccc(F)cc4)c(CCCCC(=O)O)nc3c2)on1 [Example 8D] | ≤ 0.01 µM | –
42 | O=C(O)CCCCc1nc2cc(-c3cc([C@H](O)c4ccc(F)cc4)on3)ccc2c(=O)n1-c1ccc(F)cc1 [Example 25C] | ≤ 0.01 µM | –
43 | O=C(O)CCCCc1nc2cc(-c3cc(CNS(=O)(=O)c4cc(F)cc(F)c4)on3)ccc2c(=O)n1-c1ccc(F)cc1 [Example 24N] | ≤ 0.01 µM | –
44 | CC[C@](O)(c1ccc(F)cc1)c1cc(-c2ccc3c(=O)n(-c4ccc(F)cc4)c(CCCCC(=O)O)nc3c2)no1 [Example 257] | ≤ 0.01 µM | –
45 | C[C@@]1([C@H](O)c2ccccc2)CC(c2ccc3c(=O)n(-c4ccc(F)cc4)c(CCCCC(=O)O)nc3c2)=NO1 [Example 26F] | ≤ 0.01 µM | –
46 | O=C(O)C1CC(Cc2nc3cc(-c4cc(Cc5ccc(F)cc5)on4)ccc3c(=O)n2-c2ccc(F)cc2)C1 (stereo not drawn) [Example 156] | 0.01 to 0.05 µM | –
47 | C[C@]1(c2nc3cc(F)c(F)cc3[nH]2)CC(c2ccc3c(=O)n(-c4ccc(F)cc4)c(CCCCC(=O)O)nc3c2)=NO1 [Example 208] | ≤ 0.01 µM | –
48 | C[C@@]1(c2ncc3ccccn23)CC(c2ccc3c(=O)n(-c4ccc(F)cc4)c(CCCCC(=O)O)nc3c2)=NO1 [Example 227] | 0.01 to 0.05 µM | –
49 | C[C@@]1(Cc2ccccc2)CC(c2ccc3c(=O)n(-c4ccccc4)c(CCCCC(=O)O)nc3c2)=NO1 [Example 26M] | ≤ 0.01 µM | –
50 | C[C@@]1(C(=O)N2CC[C@H](c3ccccc3)C2)CC(c2ccc3c(=O)n(-c4ccc(F)cc4)c(CCCCC(=O)O)nc3c2)=NO1 [Example 239] | 0.01 to 0.05 µM | –
51 | C[C@@]1(C(=O)NCc2ccc(C#N)cc2)CC(c2ccc3c(=O)n(-c4ccc(F)cc4)c(CCCCC(=O)O)nc3c2)=NO1 [Example 237] | 0.01 to 0.05 µM | –
52 | O=C(O)CCCCc1nc2cc(-c3cc(COCc4cc(F)cc(Cl)c4)on3)ccc2c(=O)n1-c1ccc(F)cc1 [Example 271] | ≤ 0.01 µM | –
53 | C[C@]1(c2nc3cc(Cl)c(F)cc3[nH]2)CC(c2ccc3c(=O)n(-c4ccc(F)cc4)c(CCCCC(=O)O)nc3c2)=NO1 [Example 210] | 0.01 to 0.05 µM | –
54 | O=C(O)CCCCc1nc2cc(C3=NOC4(CCCCC4)C3)ccc2c(=O)n1-c1ccc(F)cc1 [Example 15X] | ≤ 0.01 µM | –
